Experimental data: patent US20260356856A1, “KRAS G12S AND G12C INHIBITORS” (MIRATI THERAPEUTICS, INC., priority 2023, published 2026)

Tests used:
[1] = target: T1, KRas-mediated phosphorylation of ERK in MKN1 cells (Homo sapiens, UniProt P01116); test: Inhibition of KRas-mediated phosphorylation of ERK (HTRF), MKN1 cells; format: cell-based; details: MKN1 cells (KRas WT); HTRF pERK; 3 h incubation
T1 construct: pERK HTRF read-out
Protocol: Inhibition of KRas Phosphorylation of ERK (HTRF) by Exemplary Compounds of Formula (Ia) or (Ib)
Cisbio HTRF Advanced pERK Assay Catalog #64AERPEH • Cells: MKN1, PSN1 • Procedure: • 1. Day 1: Seed 6,000 cells/well −25 μl/well in 384-well white solid bottom plate; RPM1_10% FBS. Incubate overnight at 37 °C/5% CO2. • 2.

KRas WT = target: T2, KRas WT (Homo sapiens, UniProt P01116); test: KRas binding assay, TR-FRET displacement of Cy5 labelled tracer; details: 60-minute incubation at room temperature, 1% DMSO, pH 7.5
T2 construct: Biotinylated KRas (corresponding to amino acids 1-169, produced at Accelegan Inc.); biotin (biotinylated); purchased Accelegan Inc
How it was run: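 TR-FRET tracer-displacement readout after 60 min at room temperature, using KRas residues 1-169 (biotinylated) with terbium streptavidin and a Cy5 tracer. Buffer: 50 mM HEPES pH 7.5, 5 mM MgCl2, 0.005% Tween-20, 1 mM DTT, 1% DMSO final. IC50 from 4-parameter fit of POC data.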

KRas G12C = target: T3, KRas G12C (Homo sapiens, UniProt P01116, G12C); test: as above; details: 60-minute incubation at room temperature, 1% DMSO, pH 7.5
T3 construct: Biotinylated KRas (corresponding to amino acids 1-169, produced at Accelegan Inc.); biotin (biotinylated); purchased Accelegan Inc
How it was run: (§1)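 Tb-streptavidin captured biotinylated KRas (1-169) in HEPES 50 mM, DTT 1 mM, MgCl2 5 mM, Tween-20 0.005% (pH 7.5), alongside tracer and compound at 1% final DMSO. One hour at RT, then read; IC50 from 4-parameter POC fit.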

KRas G12S = target: T4, KRas G12S (Homo sapiens, UniProt P01116, G12S); test: as above; details: 60-minute incubation at room temperature, 1% DMSO, pH 7.5
T4 construct: Biotinylated KRas (corresponding to amino acids 1-169, produced at Accelegan Inc.); biotin (biotinylated); purchased Accelegan Inc
How it was run: as §1

[2] = target: T5, KRas-mediated phosphorylation of ERK in H358 cells (Homo sapiens, UniProt P01116, G12C); test: Inhibition of KRas-mediated phosphorylation of ERK (HTRF), H358 cells; format: cell-based; details: HTRF pERK, 3 h incubation
T5 construct: pERK HTRF read-out

[3] = target: T6, KRas-mediated phosphorylation of ERK in A549 cells (Homo sapiens, UniProt P01116, G12S); test: Inhibition of KRas-mediated phosphorylation of ERK (HTRF), A549 cells; format: cell-based; details: HTRF pERK, 3 h incubation
T6 construct: pERK HTRF read-out
T6 sequence (P01116 1-188 isoform P01116-2 G12S): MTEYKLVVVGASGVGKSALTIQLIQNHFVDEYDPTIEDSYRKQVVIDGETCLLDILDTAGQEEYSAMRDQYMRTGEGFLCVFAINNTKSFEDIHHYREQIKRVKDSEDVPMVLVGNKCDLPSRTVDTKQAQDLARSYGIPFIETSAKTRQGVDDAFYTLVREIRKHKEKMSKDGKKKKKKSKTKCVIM

T1 sequence (P01116 1-188 isoform P01116-2): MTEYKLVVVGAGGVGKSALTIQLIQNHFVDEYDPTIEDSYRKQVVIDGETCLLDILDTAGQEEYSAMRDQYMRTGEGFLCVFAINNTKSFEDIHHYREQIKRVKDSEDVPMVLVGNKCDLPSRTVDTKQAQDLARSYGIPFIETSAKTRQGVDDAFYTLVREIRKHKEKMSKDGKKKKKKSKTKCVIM
T4 sequence (P01116 1-169 isoform P01116-2 G12S): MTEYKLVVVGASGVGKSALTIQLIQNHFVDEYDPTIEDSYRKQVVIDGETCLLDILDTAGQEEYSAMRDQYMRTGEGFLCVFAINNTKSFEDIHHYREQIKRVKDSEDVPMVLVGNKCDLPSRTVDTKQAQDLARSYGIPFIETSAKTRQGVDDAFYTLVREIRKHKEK
T5 sequence (P01116 1-188 isoform P01116-2 G12C): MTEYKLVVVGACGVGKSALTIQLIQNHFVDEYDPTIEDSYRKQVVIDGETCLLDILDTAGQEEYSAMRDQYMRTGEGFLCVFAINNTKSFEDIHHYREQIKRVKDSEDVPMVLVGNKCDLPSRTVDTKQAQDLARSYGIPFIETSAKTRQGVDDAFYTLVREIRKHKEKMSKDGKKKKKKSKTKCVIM
T2 sequence (P01116 1-169 isoform P01116-2): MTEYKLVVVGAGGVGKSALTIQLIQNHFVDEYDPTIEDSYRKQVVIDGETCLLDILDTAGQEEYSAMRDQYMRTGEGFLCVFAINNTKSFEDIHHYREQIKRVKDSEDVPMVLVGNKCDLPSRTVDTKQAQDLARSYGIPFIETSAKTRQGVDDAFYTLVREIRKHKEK
T3 sequence (P01116 1-169 isoform P01116-2 G12C): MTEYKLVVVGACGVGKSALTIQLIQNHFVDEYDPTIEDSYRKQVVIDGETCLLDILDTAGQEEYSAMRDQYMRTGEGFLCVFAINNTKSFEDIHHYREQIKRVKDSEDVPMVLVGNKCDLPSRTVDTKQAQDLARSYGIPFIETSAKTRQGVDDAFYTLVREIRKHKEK

Structure (SMILES)	IC50 [1]	IC50 (KRas WT)	IC50 (KRas G12C)	IC50 (KRas G12S)	IC50 [2]	IC50 [3]
CCc1c(F)ccc2cc(O)cc(-c3ncc4c(N(C)CCN(C)C(=O)n5cncn5)nc(OC[C@@]56CCCN5C[C@H](F)C6)nc4c3F)c12 [Example 223, N-(2-((7-(8-ethyl-7-fluoro-3-hydroxynaphthalen-1-yl)-8-fluoro-2-(((2R,7aS)-2-fluorotetrahydro-1H-pyrrolizin-7a(5H)-yl)methoxy)pyrido[4,3-d]pyrimidin-4-yl)(methyl)amino)ethyl)-N-methyl-1H-1,2,4-triazole-1-carboxamide]	569 nM	164 nM	42 nM	53 nM	17 nM	2390 nM
CCc1c(F)ccc2cc(O)cc(-c3ncc4c(N5CCC(C(=O)N(C)C(=O)C(C)(C)C)CC5)nc(OC[C@@]56CCCN5C[C@H](F)C6)nc4c3F)c12 [Example 224, 1-(7-(8-ethyl-7-fluoro-3-hydroxynaphthalen-1-yl)-8-fluoro-2-(((2R,7aS)-2-fluorotetrahydro-1H-pyrrolizin-7a(5H)-yl)methoxy)pyrido[4,3-d]pyrimidin-4-yl)-N-methyl-N-pivaloylpiperidine-4-carboxamide]	321 nM	177 nM	526 nM	257 nM	1330 nM	3770 nM
Cc1ccn(C(=O)C2CCCN(c3nc(OCC4(CN(C)C)CC4)nc4c(F)c(-c5ccc(F)c6sc(N)c(C#N)c56)c(Cl)cc34)CC2)n1 (stereo not drawn) [Example 227, 2-amino-4-(6-chloro-2-((1-((dimethylamino)methyl)cyclopropyl)methoxy)-8-fluoro-4-(4-(3-methyl-1H-pyrazole-1-carbonyl)azepan-1-yl)quinazolin-7-yl)-7-fluorobenzo[b]thiophene-3-carbonitrile]	522 nM	93 nM	19 nM	13 nM	185 nM	46 nM
CN(CCNC(=O)n1cncn1)c1nc(OC[C@@]23CCCN2C[C@H](F)C3)nc2c(F)c(-c3ccc(F)c4sc(N)c(C#N)c34)c(Cl)cc12 [Example 228, N-(2-((7-(2-amino-3-cyano-7-fluorobenzo[b]thiophen-4-yl)-6-chloro-8-fluoro-2-(((2R,7aS)-2-fluorotetrahydro-1H-pyrrolizin-7a(5H)-yl)methoxy)quinazolin-4-yl)(methyl)amino)ethyl)-1H-1,2,4-triazole-1-carboxamide]	252 nM	13 nM	3 nM	8 nM	9 nM	448 nM
N#Cc1c(N)sc2c(F)ccc(-c3c(Cl)cc4c(N5CCN(S(=O)(=O)n6nccn6)CC5)nc(OC[C@@]56CCCN5C[C@H](F)C6)nc4c3F)c12 [Example 229, 4-(4-(4-((2H-1,2,3-triazol-2-yl)sulfonyl)piperazin-1-yl)-6-chloro-8-fluoro-2-(((2R,7aS)-2-fluorotetrahydro-1H-pyrrolizin-7a(5H)-yl)methoxy)quinazolin-7-yl)-2-amino-7-fluorobenzo[b]thiophene-3-carbonitrile]	333 nM	161 nM	586 nM	631 nM	> 10000 nM	> 10000 nM
CCc1c(F)ccc2cc(O)cc(-c3ncc4c(N(C)CCCS(=O)(=O)n5cccn5)nc(OC[C@@]56CCCN5C[C@H](F)C6)nc4c3F)c12 [Example 230, 4-(4-((3-((1H-pyrazol-1-yl)sulfonyl)propyl)(methyl)amino)-8-fluoro-2-(((2R,7aS)-2-fluorotetrahydro-1H-pyrrolizin-7a(5H)-yl)methoxy)pyrido[4,3-d]pyrimidin-7-yl)-5-ethyl-6-fluoronaphthalen-2-ol]	394 nM	91 nM	134 nM	123 nM	1500 nM	4350 nM

These reach a lower IC50 [1]. Values come first.

IC50 [1]	IC50 (KRas WT)	IC50 (KRas G12C)	IC50 (KRas G12S)	IC50 [2]	IC50 [3]	Structure (SMILES)
237 nM	30 nM	6 nM	18 nM	13 nM	2730 nM	CCc1c(F)ccc2cc(O)cc(-c3ncc4c(N(C)CCNC(=O)n5cncn5)nc(OC[C@@]56CCCN5C[C@H](F)C6)nc4c3F)c12 [Example 225, N-(2-((7-(8-ethyl-7-fluoro-3-hydroxynaphthalen-1-yl)-8-fluoro-2-(((2R,7aS)-2-fluorotetrahydro-1H-pyrrolizin-7a(5H)-yl)methoxy)pyrido[4,3-d]pyrimidin-4-yl)(methyl)amino)ethyl)-1H-1,2,4-triazole-1-carboxamide]
161 nM	9 nM	< 2 nM	3 nM	7 nM	3 nM	CON(C(C)=O)C(=O)CCCN(C)c1nc(OC[C@@]23CCCN2C[C@H](F)C3)nc2c(F)c(-c3ccc(F)c4sc(N)c(C#N)c34)c(Cl)cc12 [Example 234, N-acetyl-4-((7-(2-amino-3-cyano-7-fluorobenzo[b]thiophen-4-yl)-6-chloro-8-fluoro-2-(((2R,7aS)-2-fluorotetrahydro-1H-pyrrolizin-7a(5H)-yl)methoxy)quinazolin-4-yl)(methyl)amino)-N-methoxybutanamide]
97 nM	12 nM	3 nM	7 nM	3 nM	234 nM	CN(CCN(C)c1nc(OC[C@@]23CCCN2C[C@H](F)C3)nc2c(F)c(-c3ccc(F)c4sc(N)c(C#N)c34)c(Cl)cc12)C(=O)n1cncn1 [Example 232, N-(2-((7-(2-amino-3-cyano-7-fluorobenzo[b]thiophen-4-yl)-6-chloro-8-fluoro-2-(((2R,7aS)-2-fluorotetrahydro-1H-pyrrolizin-7a(5H)-yl)methoxy)quinazolin-4-yl)(methyl)amino)ethyl)-N-methyl-1H-1,2,4-triazole-1-carboxamide]
82 nM	6 nM	3 nM	2 nM	60 nM	7 nM	CN(C=O)C(=O)CCCN(C)c1nc(OC[C@@]23CCCN2C[C@H](F)C3)nc2c(F)c(-c3ccc(F)c4sc(N)c(C#N)c34)c(Cl)cc12 [Example 235, 4-((7-(2-amino-3-cyano-7-fluorobenzo[b]thiophen-4-yl)-6-chloro-8-fluoro-2-(((2R,7aS)-2-fluorotetrahydro-1H-pyrrolizin-7a(5H)-yl)methoxy)quinazolin-4-yl)(methyl)amino)-N-formyl-N-methylbutanamide]
70 nM	15 nM	18 nM	6 nM	69 nM	17 nM	CC(=O)N(C)C(=O)[C@@H]1C[C@@H]2CN(c3nc(OC[C@@]45CCCN4C[C@H](F)C5)nc4c(F)c(-c5ccc(F)c6sc(N)c(C#N)c56)c(Cl)cc34)C[C@@H]2C1 [Example 237, (3aR,5R,6aS)-N-acetyl-2-((S)-7-(2-amino-3-cyano-7-fluorobenzo[b]thiophen-4-yl)-6-chloro-8-fluoro-2-(((2R,7aS)-2-fluorotetrahydro-1H-pyrrolizin-7a(5H)-yl)methoxy)quinazolin-4-yl)-N-methyloctahydrocyclopenta[c]pyrrole-5-carboxamide]
40 nM	10 nM	11 nM	14 nM	84 nM	145 nM	CC(=O)N(C)C(=O)[C@@H]1C[C@H]1CNc1nc(OC[C@@]23CCCN2C[C@H](F)C3)nc2c(F)c(-c3ccc(F)c4sc(N)c(C#N)c34)c(Cl)cc12 [Example 238, trans-N-acetyl-2-(((7-(2-amino-3-cyano-7-fluorobenzo[b]thiophen-4-yl)-6-chloro-8-fluoro-2-(((2R,7aS)-2-fluorotetrahydro-1H-pyrrolizin-7a(5H)-yl)methoxy)quinazolin-4-yl)amino)methyl)-N-methylcyclopropane-1-carboxamide]
25 nM	13 nM	5 nM	17 nM	4 nM	444 nM	N#Cc1c(N)sc2c(F)ccc(-c3c(Cl)cc4c(N5CCN(C(=O)n6ccnc6)CC5)nc(OC[C@@]56CCCN5C[C@H](F)C6)nc4c3F)c12 [Example 231, 4-(4-(4-(1H-imidazole-1-carbonyl)piperazin-1-yl)-6-chloro-8-fluoro-2-(((2R,7aS)-2-fluorotetrahydro-1H-pyrrolizin-7a(5H)-yl)methoxy)quinazolin-7-yl)-2-amino-7-fluorobenzo[b]thiophene-3-carbonitrile]
4 nM	6 nM	< 2 nM	8 nM	1 nM	69 nM	N#Cc1c(N)sc2c(F)ccc(-c3c(Cl)cc4c(N5CCN(C(=O)n6ccnn6)CC5)nc(OC[C@@]56CCCN5C[C@H](F)C6)nc4c3F)c12 [Example 226, 4-(4-(4-(1H-1,2,3-triazole-1-carbonyl)piperazin-1-yl)-6-chloro-8-fluoro-2-(((2R,7aS)-2-fluorotetrahydro-1H-pyrrolizin-7a(5H)-yl)methoxy)quinazolin-7-yl)-2-amino-7-fluorobenzo[b]thiophene-3-carbonitrile]
